Results published in BindingDB's records for doi:10.7270/Q2KD1WBN (Burnham Center For Chemical Genomics, 2010).

These compounds were tested against Envelope glycoprotein gp160 (Human immunodeficiency virus 1, UniProt Q6QLK5) (assay: HIV fusion inhibitor analogs, peptide binding, SAR follow-up, biochemical, fluorescence quenching (AID 434967)).
Chain of Envelope glycoprotein gp160 (Q6QLK5 whole entry, the tested form may be a part): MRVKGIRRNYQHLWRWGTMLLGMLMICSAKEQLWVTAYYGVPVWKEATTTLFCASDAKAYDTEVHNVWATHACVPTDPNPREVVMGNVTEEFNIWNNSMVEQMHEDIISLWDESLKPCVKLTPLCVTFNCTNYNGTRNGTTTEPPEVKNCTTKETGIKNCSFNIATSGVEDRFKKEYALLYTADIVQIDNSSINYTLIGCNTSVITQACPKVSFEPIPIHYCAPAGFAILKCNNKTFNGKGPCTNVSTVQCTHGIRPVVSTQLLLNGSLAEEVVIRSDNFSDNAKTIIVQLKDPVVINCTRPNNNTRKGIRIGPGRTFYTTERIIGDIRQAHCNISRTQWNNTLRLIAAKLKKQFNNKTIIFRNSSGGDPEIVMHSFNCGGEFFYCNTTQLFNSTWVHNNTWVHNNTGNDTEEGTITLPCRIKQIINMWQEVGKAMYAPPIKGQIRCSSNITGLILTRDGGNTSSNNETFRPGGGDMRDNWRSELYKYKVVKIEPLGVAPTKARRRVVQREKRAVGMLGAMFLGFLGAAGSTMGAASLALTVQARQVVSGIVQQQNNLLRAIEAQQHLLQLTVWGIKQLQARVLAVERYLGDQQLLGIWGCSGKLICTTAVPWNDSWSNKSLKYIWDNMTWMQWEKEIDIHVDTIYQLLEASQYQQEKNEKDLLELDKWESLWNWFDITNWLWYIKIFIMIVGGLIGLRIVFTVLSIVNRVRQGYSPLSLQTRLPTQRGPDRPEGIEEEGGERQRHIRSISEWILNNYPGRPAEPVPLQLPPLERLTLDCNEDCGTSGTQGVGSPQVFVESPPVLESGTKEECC

SMILES | IC50
Cc1c(Cl)cccc1NS(=O)(=O)c1ccc2c(c1)C1C=CCC1C(c1ccc(C(=O)O)cc1)N2 (stereo not drawn) | 3.16 µM
CCS(=O)(=O)C1=NSC2=NC(=O)/C(=C\c3ccc(OS(=O)(=O)c4ccccc4)cc3)C(=N)N21 [MLS-0362442.0001] | 11.5 µM
O=C1NC(=S)N(c2ccc(F)cc2)C(=O)C1=Cc1ccoc1 [SMR000270574] | 8.59 µM
COC(=O)c1sc(-c2ccc(C(C)(C)C)cc2)cc1NC(=O)c1ccccc1C(=O)O [SMR000456098] | 5.94 µM
COc1ccc(OC)c(N2C(=O)C(=Cc3ccco3)C(=O)NC2=S)c1 [MLS001197216] | 6.06 µM
Cc1ccc(-n2cccc2/C=C2/C(=N)N3C(=NC2=O)SN=C3S(C)(=O)=O)cc1Cl [MLS000583163] | 5.76 µM
O=C1NC(=S)N(C2CCCCC2)C(=O)C1=CNNC(=O)c1ccccc1O [N'-[(E)-(1-cyclohexyl-4,6-dioxo-2-sulfanylidene-1,3-diazinan-5-ylidene)methyl]-2-hydroxybenzohydrazide] | 9 µM
Cc1cc(C)cc(-n2cccc2/C=C2/C(=N)N3C(=NC2=O)SN=C3S(C)(=O)=O)c1 [(6Z)-5-azanylidene-6-[[1-(3,5-dimethylphenyl)pyrrol-2-yl]methylidene]-3-methylsulfonyl-[1,2,4]thiadiazolo[4,5-a]pyrimidin-7-one] | 7.81 µM
CC(C)S(=O)(=O)C1=NSC2=NC(=O)/C(=C\c3ccc(-c4cccc(C(=O)O)c4)o3)C(=N)N21 [3-[5-[(Z)-(5-imino-7-oxo-3-propan-2-ylsulfonyl-[1,2,4]thiadiazolo[4,5-a]pyrimidin-6-ylidene)methyl]furan-2-yl]benzoic acid] | 4.49 µM
CCOC(=O)c1sc(N2C(=O)C(=O)C(C(=O)c3ccc(C)o3)C2c2cccc([N+](=O)[O-])c2)nc1C (stereo not drawn) [ethyl 4-methyl-2-[3-(5-methylfuran-2-yl)carbonyl-2-(3-nitrophenyl)-4-oxidanyl-5-oxidanylidene-2H-pyrrol-1-yl]-1,3-thiazole-5-carboxylate] | 10.5 µM
CC(C)NC(=O)c1sc(=S)n2c1[nH]c(=O)c1ccc(C(=O)NCCc3ccc(Cl)cc3)cc12 [N8-[2-(4-chlorophenyl)ethyl]-5-oxidanylidene-N3-propan-2-yl-1-sulfanylidene-4H-[1,3]thiazolo[3,4-a]quinazoline-3,8-dicarboxamide] | 9.56 µM
COc1cc(CN=Nc2ccc(Cl)c(C(=O)O)c2)ccc1OC(=O)c1ccc(F)cc1 [2-chloro-5-[2-[[4-[(4-fluorophenyl)-oxomethoxy]-3-methoxyphenyl]methylidene]hydrazinyl]benzoic acid] | 8.03 µM
COc1cc(CN=Nc2ccc(Cl)c(C(=O)O)c2)ccc1OC(=O)c1ccccc1F [SMR000589905] | 25.9 µM
O=c1/c(=C/c2cc([N+](=O)[O-])cc([N+](=O)[O-])c2O)sc2nc3ccccc3n12 [2-[(2-hydroxy-3,5-dinitrophenyl)methylidene]-1-thiazolo[3,2-a]benzimidazolone] | 2.61 µM
O=C1Nc2ccc([N+](=O)[O-])cc2C1=NNc1ccccc1C(=O)O [2-[2-(5-nitro-2-oxidanylidene-indol-3-yl)hydrazinyl]benzoic acid] | 13.3 µM
CSc1nnc(-c2ccccc2N=Cc2c(C)[nH]n(-c3ccc4ccccc4c3)c2=O)c(=O)[nH]1 [MLS000540062] | 9.84 µM
CC(C)(C)c1cc(-c2cs/c(=N\c3ccccc3)n2Cc2ccc(C(=O)O)cc2)cc(C(C)(C)C)c1O [4-[[4-(3,5-ditert-butyl-4-oxidanyl-phenyl)-2-phenylazanyl-1,3-thiazol-3-ium-3-yl]methyl]benzoic acid;bromide] | 27.3 µM
COc1ccccc1NS(=O)(=O)c1cccc(-n2c(O)c(C=Nc3ccccc3C(=O)O)c3ccccc3c2=O)c1 [MLS000776209] | 9.64 µM
CS(=O)(=O)C1=NSC2=NC(=O)/C(=C\c3ccc(OS(=O)(=O)c4ccccc4)cc3)C(=N)N21 | 7.73 µM

SMILES | IC50
CCOc1cc(/C=C2\SC(=O)N(CC(=O)Nc3ccccc3F)C2=O)cc([N+](=O)[O-])c1O | 4.32 µM
O=[N+]([O-])c1cc([N+](=O)[O-])c2oc(-c3ccccc3)c(Br)c2c1O [3-bromanyl-5,7-dinitro-2-phenyl-1-benzofuran-4-ol] | 14.5 µM
COc1cc(/C=C2\SC(=O)N(c3ccccc3Cl)C2=O)cc([N+](=O)[O-])c1O | 9.04 µM
COc1ccc(C(=O)Oc2ccc(CN=Nc3ccc(Cl)c(C(=O)O)c3)cc2OC)cc1 [SMR000589907] | 5.16 µM
CC(C)S(=O)(=O)C1=NSC2=NC(=O)/C(=C\c3ccc(-c4ccccc4)o3)C(=N)N21 [(6Z)-5-imino-6-[(5-phenyl-2-furanyl)methylidene]-3-propan-2-ylsulfonyl-[1,2,4]thiadiazolo[4,5-a]pyrimidin-7-one] | 9.65 µM
O=C(O)CCCN1C(=O)/C(=C/c2ccc(-c3nc4ccccc4s3)o2)SC1=S [4-[(5Z)-5-[[5-(1,3-benzothiazol-2-yl)furan-2-yl]methylidene]-4-oxo-2-sulfanylidene-1,3-thiazolidin-3-yl]butanoic acid] | 1.76 µM
CS(=O)(=O)C1=NSC2=NC(=O)/C(=C\c3cccn3-c3ccc(Cl)cc3)C(=N)N21 | 5.7 µM
N#C/C(=C\C1C=CC(=O)C([N+](=O)[O-])=C1)c1nc2ccccc2s1 (stereo not drawn) | 6.25 µM
CCC(Sc1nc2ccsc2c(=O)n1Cc1ccc(C(=O)O)cc1)C(=O)Nc1ccc(C)c(Cl)c1 (stereo not drawn) | 8.01 µM
COc1cc(/C=N/NS(=O)(=O)c2ccc3ccccc3c2)ccc1OCc1ccc(C(=O)O)cc1 [MLS-0298745.0001] | 7.76 µM
Cc1c2c(=O)n(-c3nc4ccccc4s3)[nH]c2cc(=O)n1Cc1ccccc1 [MLS000762993] | 10.1 µM
CCOC(=O)C1=C(C)N=c2sc(=Cc3ccc(OCC(=O)O)cc3)c(=O)n2C1c1ccc(OC(C)C)cc1 (stereo not drawn) [2-[4-[[6-ethoxycarbonyl-7-methyl-3-oxo-5-(4-propan-2-yloxyphenyl)-5H-[1,3]thiazolo[3,2-a]pyrimidin-2-ylidene]methyl]phenoxy]acetic acid] | 6.64 µM
CCC(C)(C)C1CCc2c(sc(NC(=O)c3ccccc3C(=O)O)c2C#N)C1 (stereo not drawn) [2-[[3-cyano-6-(2-methylbutan-2-yl)-4,5,6,7-tetrahydro-1-benzothiophen-2-yl]carbamoyl]benzoic acid] | 6.1 µM
O=C(O)c1cc(N=NCc2ccc(-c3ccccc3)cc2)ccc1Cl [MLS-0319671.0001] | 14.8 µM
Cc1ccc(-n2c(O)c(C=Nc3ccccc3-c3n[nH]c(=S)[nH]c3=O)c3ccccc3c2=O)c(C)c1 [SMR000370443] | 5.76 µM
Cc1ccc(S(=O)(=O)Oc2ccc(/C=C3/C(=N)N4C(=NC3=O)SN=C4S(C)(=O)=O)cc2)cc1 [4-methylbenzenesulfonic acid [4-[(Z)-(5-imino-3-methylsulfonyl-7-oxo-[1,2,4]thiadiazolo[4,5-a]pyrimidin-6-ylidene)methyl]phenyl] ester] | 6.51 µM
O=C(O)c1ccccc1C(=O)N(Cc1cccc(Oc2ccc(Cl)cc2)c1)[C@H]1CCCc2ccccc21 [2-[[[3-(4-chlorophenoxy)phenyl]methyl-[(1S)-1,2,3,4-tetrahydronaphthalen-1-yl]amino]-oxomethyl]benzoic acid] | 2.6 µM
O=C1NC(=S)N(c2ccc(F)cc2)C(=O)C1=Cc1ccco1 [(5E)-1-(4-fluorophenyl)-5-(2-furanylmethylidene)-2-sulfanylidene-1,3-diazinane-4,6-dione] | 10 µM
CC1(C)CC(=O)C2=C(C1)c1c(ccc3ccccc13)NC2c1cc([N+](=O)[O-])cc([N+](=O)[O-])c1O (stereo not drawn) [MLS000716265] | 13.5 µM
